Patent publication US11247982B2, “NMDA receptor modulators, compositions comprising same and use of these compounds in the treatment of diseases involving the central nervous system” (ADPUERIVITAM, priority 2017, dated 2022)

Tested on: NMDA receptors
Assay: Whole-cell patch-clamp of NMDA currents in cultured rat embryonic hippocampal neurons
Type: cell-based
Details: for A. NMDA current: Summary: 10 μM test compound; for C. Channel closing kinetics: T run-down (ms) / C. Channel closing kinetics: Tau (s) / D. Desensitization: Slope (pA/s) / C. Channel closing kinetics: Max slope (pA/s) / B. Channel opening kinetics: Min slope (pA/s) / C. Channel closing kinetics: Run down slope (pA/s) / B. Channel opening kinetics: Run-up slope (pA/s) / B. Channel opening kinetics: T run-up (ms) / B. Channel opening kinetics: Time to peak (ms): 10 μM test compound vs NMDA alone; for C. Channel closing kinetics: T run-down (ms): closing time between 90% and 10% of max current; for C. Channel closing kinetics: T run-down (ms) / C. Channel closing kinetics: Tau (s) / D. Desensitization: Slope (pA/s) / C. Channel closing kinetics: Max slope (pA/s) / B. Channel opening kinetics: Min slope (pA/s) / C. Channel closing kinetics: Run down slope (pA/s) / B. Channel opening kinetics: Run-up slope (pA/s) / B. Channel opening kinetics: T run-up (ms) / B. Channel opening kinetics: Time to peak (ms) / A. NMDA current: Width 50 (ms) / A. NMDA current: Peak area (pA · s): (n) = cells; for C. Channel closing kinetics: Tau (s): closing time of 50% of the channels (half-life); for D. Desensitization: Slope (pA/s): desensitization speed during the application of NMDA; for C. Channel closing kinetics: Max slope (pA/s): greatest closing speed; for B. Channel opening kinetics: Min slope (pA/s): greatest opening speed; for C. Channel closing kinetics: Run down slope (pA/s): mean closing speed during T run-down; for B. Channel opening kinetics: Run-up slope (pA/s): mean opening speed during T run-up; for B. Channel opening kinetics: T run-up (ms): opening time between 10% and 90% of max current; for B. Channel opening kinetics: Time to peak (ms): time to reach the maximum current; for A. NMDA current: Width 50 (ms) / A. NMDA current: Peak area (pA · s) / A. NMDA current: Height (pA): 10 μM test compound with 100 μM NMDA + 5 μM L-glycine vs NMDA alone; for A. NMDA current: Width 50 (ms): duration of current above 50% of Height; for A. NMDA current: Peak area (pA · s): total current integrated over time; for A. NMDA current: Height (pA): −60 mV, maximum current, (n) = number of cells; for A. NMDA current: Washable / B. Channel opening kinetics: Washable / C. Channel closing kinetics: Washable / D. Desensitization: Washable: persistence of effect, NMDA wash vs NMDA + test compound
Protocol: Female Wistar rats in gestation with 17-day-old embryos (E17) were obtained from Janvier Labs. On the day of receipt of the animals, the rat is sacrificed and the embryos are dissected under sterile conditions to remove their brain, which is then micro-dissected in GBSS (Gey's balanced salt solution) medium to obtain the hippocampus from the two hemispheres, while discarding the meninges. The tissues harvested from at least five embryos are placed in 2 ml of DMEM medium (registered trademark) (Dulbecco's modified Eagle's medium—from Life Technologies) with 2% of fetal calf serum, 2 mM of glutamine, 0.1 mg/mL of penicillin-streptomycin antibiotic mixture (Life Technologies) and subjected to mechanical dissociation of the cells by passing through round-ended glass pipettes with an inside diameter decreasing from 0.5 to 0.2 mm. The cells are counted and 100 μl of suspension containing 25×10^3 cells are placed on a glass slide coated with polylysine (poly-D-lysine hydrobromide from 75 to 150 kDa, from Sigma) of Ø 12 mm, in 12-well culture plates and incubated for 2 hours at 37° C. under an atmosphere containing 5% of CO2 to allow cell adhesion. A volume of 2 mL of culture medium is added gently: Neurobasal (registered trademark) with 1/50 (v:v) serum-free supplement B-27® (Life Technologies), 2 mM of glutamine, 0.1 mg/ml of penicillin-streptomycin antibiotic mixture (from Life Technologies), and incubation is again performed under the same conditions. Half of the medium is replaced twice a week for maintenance. The neuronal cells will be able to differentiate over a period of 12 to 30 days. The cultures are monitored by phase-contrast microscopy: the extension of the neurites and of the synaptic connections is observed for the neurons, which represent the majority of the cells, while a few astrocytes are also present.
The electrophysiology post consists of an Olympus IMT-2 model inverted phase-contrast microscope placed on a TMC antivibration table in a Faraday cage. The installation also comprises an SF-77B model Warner multichannel perfusion system, a Burleigh PCS-5000 model 3D-micromanipulator system holding the microelectrode probe, a Warner PC-505 model patch-clamp amplifier and a PowerLab 8/35 model 8-channel analog-digital interface from ADInstruments. The glass microelectrode is manufactured with thin-walled borosilicate capillary tubes (1.5 OD×1.17 ID×100 L mm, from Harvard Apparatus) and prepared with the Narishige PC10 model vertical electrode puller to obtain an electrical resistance of about 5 MOhm. The electrode of the pipette is filled with the intracellular medium composed of (in mM): 100 CsF, 40 CsCl, 1.2 CaCl2, 20 HEPES, 10 EGTA, pH=7.4 (adjusted with CsOH).
The culture on its slide is placed in a 60 mm Petri dish with 2 ml of extracellular medium composed of (in mM): 140 NaCl, 5 KCl, 1.2 CaCl2, 1.5 MgCl2, 12 HEPES, 12 Na-HEPES, 33 glucose, pH=7.4.
The neuron selected is patched in the whole cell configuration. The maintenance potential is set at −60 mV.
The assembled glass microtubes of square cross section of the perfusion system each provide a stable stream of different composition. The “TTX” default medium corresponds to the extracellular medium to which is added 1 μM tetrodotoxin. The “NMDA” application medium is “TTX” supplemented with 100 μM of NMDA (N-methyl-D-aspartate) as agonist, and 5 μM of L-glycine as co-agonist. The “NMDA+ test compound” medium corresponds to the “NMDA” supplemented with 10 μM of the test compound. The “NMDA wash” is identical to the “NMDA” medium.
As a general rule, three applications of each test compound are performed on the patched cell, for 2 seconds at intervals of 3 minutes (to allow inversion of desensitization). The sequence of the applications is: 1) “NMDA”, 2) “NMDA+ test compound”, 3) “NMDA wash”. The “TTX” medium is applied by default, before and after each application of test compound. […]

O=C(C[C@]1(O)C(=O)N(CCc2c[nH]c3ccccc23)c2ccccc21)c1ccccc1Cl [Molecule 2]
A. NMDA current: Summary: Antagonist (6+) | C. Channel closing kinetics: T run-down (ms): −15 ± 5% (7) | C. Channel closing kinetics: Tau (s): 44 ± 28% (7) | D. Desensitization: Slope (pA/s): −70 ± 17% (7) | C. Channel closing kinetics: Max slope (pA/s): −28 ± 8% (7) | B. Channel opening kinetics: Min slope (pA/s): −25 ± 9% (7) | C. Channel closing kinetics: Run down slope (pA/s): −63 ± 13% (7) | B. Channel opening kinetics: Run-up slope (pA/s): −61 ± 10% (7) | B. Channel opening kinetics: T run-up (ms): −16 ± 13% (7) | B. Channel opening kinetics: Time to peak (ms): −7 ± 4% (7) | A. NMDA current: Width 50 (ms): −49 ± 14% (7) | A. NMDA current: Peak area (pA · s): −65 ± 13% (7) | A. NMDA current: Height (pA): −66 ± 10% (7) | A. NMDA current: Washable: Yes | B. Channel opening kinetics: Washable: (Yes/No) | C. Channel closing kinetics: Washable: (Yes/No) | D. Desensitization: Washable: (Yes)

Cc1ccc2[nH]c(=O)c(C3=NN(C(=O)CCC(=O)O)C(c4ccc(Br)cc4)C3)c(-c3ccccc3)c2c1 (stereo not shown) [DQP1105, reference compound]
antagonistic effect on the maximum current amplitude (concentration of less than 1 μM): maintained at the same level

O=C(C[C@]1(O)C(=O)N(CCc2c[nH]c3ccccc23)c2ccccc21)c1cccc(Cl)c1 [Molecule 1]
A. NMDA current: Summary: Antagonist (4+) | C. Channel closing kinetics: T run-down (ms): 12 ± 6% (7) | C. Channel closing kinetics: Tau (s): 29 ± 13% (6) | D. Desensitization: Slope (pA/s): −59 ± 8% (7) | C. Channel closing kinetics: Max slope (pA/s): −27 ± 10% (7) | B. Channel opening kinetics: Min slope (pA/s): −35 ± 12% (7) | C. Channel closing kinetics: Run down slope (pA/s): −48 ± 8% (7) | B. Channel opening kinetics: Run-up slope (pA/s): −45 ± 7% (7) | B. Channel opening kinetics: T run-up (ms): 3 ± 3% (7) | B. Channel opening kinetics: Time to peak (ms): 1 ± 4% (7) | A. NMDA current: Width 50 (ms): 0 ± 9% (7) | A. NMDA current: Peak area (pA · s): −37 ± 12% (7) | A. NMDA current: Height (pA): −43 ± 8% (7) | A. NMDA current: Washable: No | B. Channel opening kinetics: Washable: No | C. Channel closing kinetics: Washable: No | D. Desensitization: Washable: No

O=C(C[C@]1(O)C(=O)N(CCc2c[nH]c3ccccc23)c2ccccc21)c1ccccc1F [Molecule 3]
A. NMDA current: Summary: Antagonist (2+) | C. Channel closing kinetics: T run-down (ms): 2 ± 4% (13) | C. Channel closing kinetics: Tau (s): 17 ± 5 (13) % | D. Desensitization: Slope (pA/s): −43 ± 8% (13) | C. Channel closing kinetics: Max slope (pA/s): −22 ± 4% (13) | B. Channel opening kinetics: Min slope (pA/s): −22 ± 4 (13) % | C. Channel closing kinetics: Run down slope (pA/s): −30 ± 8% (13) | B. Channel opening kinetics: Run-up slope (pA/s): −23 ± 5% (13) | B. Channel opening kinetics: T run-up (ms): −8 ± 6% (13) | B. Channel opening kinetics: Time to peak (ms): −5 ± 3% (13) | A. NMDA current: Width 50 (ms): −10 ± 7% (13) | A. NMDA current: Peak area (pA · s): −16 ± 8% (13) | A. NMDA current: Height (pA): −24 ± 7% (13) | A. NMDA current: Washable: (No/Yes) | B. Channel opening kinetics: Washable: (Yes/No) | C. Channel closing kinetics: Washable: No | D. Desensitization: Washable: No
